# Measurements from patent US9797016B2, “Methods and biomarkers for detection of bladder cancer” (OSLO UNIVERSITETSSYKEHUS HF, priority 2010, dated 2017).
# Tested on: bladder cancer cell lines (5637, J82, SCaBER, TCCSUP)
# Experiment: Quantitative gene expression analyses (real-time PCR) after epigenetic drug treatment
# Assay type: cell-based, human
# Conditions: hypermethylated bladder cancer cell lines; 1 μM or 5 μM 5-aza-dC alone, 72 hours
# Protocol: Cell lines representative of bladder (5637, J82, SCaBER, and TCCSUP), renal cell (786-0, ACHN, Caki-1, Caki-2) and prostate (22Rv1, DU 145, LNCaP, PC-3) cancer were obtained from the American Type Culture Collection (Manassas, Va.). All cell lines were cultured according to the manufacturer's specifications, with 10% fetal bovine serum (Gibco, Invitrogen, Carlsbad, Calif.) and antibiotics (100 units/mL penicillin G, and 100 μg/mL streptomycin, Gibco), in a humidified atmosphere of 5% CO2 at 37° C. […] RNA from four bladder cancer cell lines untreated, treated either with 1 μM or 5 μM of 5-aza-2′-deoxycytidine for 72 hours, and treated with the combination of 1 μM of 5-aza-dC (72 h) and 0.5 μM of trichostatin (added the last 12 h) was analyzed. […] GDF15 (Hs00171132_m1), HSPA2 (Hs00356607_g1), TMEFF2 (Hs01086901_m1), VIM (Hs00185584_m1), and endogenous controls assays GUSB (Hs99999908_m1) and HPRTJ (Hs99999909_m1), were amplified separately in 96-well plates following the recommended protocol (Applied Biosystems), and the real time quantitative gene expression was measured by the 7500 Real-Time PCR System (Applied Biosystems). All samples were analyzed in triplicate, and the mean value was used for data analysis. […]
smiles,measurement,value
"Nc1ncn([C@H]2C[C@H](O)[C@@H](CO)O2)c(=O)n1 [5-aza-dC, 5-aza-2′-deoxycytidine]","transcript expression of GDF15, HSPA2, TMEFF2 and VIM after promoter demethylation",restored or increased
